# Where two headings read alike, the source gives them in different places.
# Columns and labels:
# barnyardgrass [1] = assay: Test B pre-/postemergence herbicide test; type: in vivo, Echinochloa crus-galli; conditions: Echinochloa crus-galli; for pest or weed control at 125 g/ha: 125 g ai/ha; for pest or weed control at 500 g/ha: 500 g ai/ha
# Procedure, shortened: (§1)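 Formulation: non-phytotoxic solvent mix with surfactant. Timing: preemergence on seed and postemergence on 2–18 cm plants, applied concurrently. Readout after 13–15 d greenhouse: visual 0–100 control rating against controls.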
# Surinam grass = assay: Test B pre-/postemergence herbicide test; type: in vivo, Urochloa decumbens; conditions: Urochloa decumbens; for pest or weed control at 125 g/ha: 125 g ai/ha; for pest or weed control at 500 g/ha: 500 g ai/ha
# Procedure, shortened: (§2)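 Flooded paddy rice and barnyardgrass were treated at the 2-leaf stage; upland plantings received compound either on sown seed or on 1- to 4-leaf seedlings. All were kept 13–15 days in a greenhouse and scored visually, 0–100, relative to untreated plants.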
# corn = assay: Test B pre-/postemergence herbicide test; type: in vivo, Zea mays; conditions: Zea mays
# Procedure, shortened: as §2
# large crabgrass = assay: Test B pre-/postemergence herbicide test; type: in vivo, Digitaria sanguinalis; conditions: Digitaria sanguinalis; for pest or weed control at 125 g/ha: 125 g ai/ha; for pest or weed control at 500 g/ha: 500 g ai/ha
# Procedure, shortened: as §2
# giant foxtail = assay: Test B pre-/postemergence herbicide test; type: in vivo, Setaria faberi; conditions: Setaria faberi, 336 h; for pest or weed control at 125 g/ha: 125 g ai/ha; for pest or weed control at 500 g/ha: 500 g ai/ha
# Procedure, shortened: as §2
# morningglory = assay: Test B pre-/postemergence herbicide test; type: in vivo, Ipomoea coccinea; conditions: Ipomoea, 336 h; for pest or weed control at 125 g/ha: 125 g ai/ha; for pest or weed control at 500 g/ha: 500 g ai/ha
# Procedure, shortened: as §1
# pigweed = assay: Test B pre-/postemergence herbicide test; type: in vivo, Amaranthus retroflexus; conditions: Amaranthus retroflexus, 336 h; for pest or weed control at 125 g/ha: 125 g ai/ha; for pest or weed control at 500 g/ha: 500 g ai/ha
# Procedure, shortened: as §2
# velvetleaf = assay: Test B pre-/postemergence herbicide test; type: in vivo, Abutilon theophrasti; conditions: Abutilon theophrasti, 336 h; for pest or weed control at 125 g/ha: 125 g ai/ha; for pest or weed control at 500 g/ha: 500 g ai/ha
# Procedure, shortened: as §2
# blackgrass = assay: Test B postemergence herbicide test; type: in vivo, Alopecurus myosuroides; conditions: Alopecurus myosuroides, post-emergence, 336 h, postemergence, visual rating, scale 0 (no effect) to 100 (complete control), read-out: Blackgrass plant response rating
# Procedure, shortened: (§3)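 Scale 0–100: zero equals no visible effect, 100 complete control, judged by eye relative to controls. Timing: 13 to 15 days in greenhouse post-treatment. Growth stage at spraying: two leaves (paddy) or one to four leaves, 2–18 cm (postemergence).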
# wheat = assay: Test B postemergence herbicide test; type: in vivo, Triticum aestivum; conditions: Triticum aestivum, post-emergence, 336 h, postemergence, 500 g ai/ha; visual rating, scale 0 (no effect) to 100 (complete control); read-out: Wheat plant response rating
# Procedure, shortened: (§4)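 Read-out: visual comparison with controls, scored 0 to 100, where 100 means complete control and 0 no effect. Formulated chemicals were applied postemergence to plants 2–18 cm tall (1- to 4-leaf), or to flooded-paddy plants at the 2-leaf stage, then held 13 to 15 days under glass.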
# wild oat = assay: Test B postemergence herbicide test; type: in vivo, Avena fatua; conditions: Avena fatua, post-emergence, 336 h, postemergence, visual rating, scale 0 (no effect) to 100 (complete control), read-out: Oat, Wild plant response rating
# Procedure, shortened: as §4
# rice = assay: Test B flooded paddy test; type: in vivo, Oryza sativa; conditions: Oryza sativa, 336 h, 1000 g ai/ha, visual rating, scale 0 to 100 (0 no effect, 100 complete control), 13 to 15 days, read-out: Rice plant response rating
# Procedure, shortened: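 After treating 2-leaf paddy plants or 2–18 cm postemergence plants (1 to 4 leaves) with formulated chemical, researchers kept them in a greenhouse for 13–15 days. Effects were judged visually versus controls: 0 indicates none, 100 total control.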
# [2] = system: small flower umbrella sedge; assay: Test B flooded paddy test; type: in vivo, Cyperus difformis; conditions: Cyperus difformis, 336 h, 1000 g ai/ha, visual rating, scale 0 to 100 (0 no effect, 100 complete control), 13 to 15 days, read-out: Sedge, Umbrella plant response rating
# Procedure, shortened: as §3
# ducksalad = assay: Test B flooded paddy test; type: in vivo, Heteranthera limosa; conditions: Heteranthera limosa, 336 h, 1000 g ai/ha, visual rating, scale 0 to 100 (0 no effect, 100 complete control), 13 to 15 days, read-out: Ducksalad plant response rating
# Procedure, shortened: as §3
# barnyardgrass [3] = assay: Test B flooded paddy test; type: in vivo, Echinochloa crus-galli; conditions: Echinochloa crus-galli, 336 h, 1000 g ai/ha, visual rating, scale 0 to 100 (0 no effect, 100 complete control), 13 to 15 days, read-out: Barnyardgrass plant response rating
# Procedure, shortened: as §3
# [4] = post-emergence, postemergence, visual rating, scale 0 (no effect) to 100 (complete control), read-out: Barnyardgrass plant response rating
# [5] = post-emergence, postemergence, visual rating, scale 0 (no effect) to 100 (complete control), read-out: Surinam Grass plant response rating
# [6] = post-emergence, postemergence, visual rating, scale 0 (no effect) to 100 (complete control), read-out: Crabgrass, Large plant response rating
# [7] = post-emergence, postemergence, visual rating, scale 0 (no effect) to 100 (complete control), read-out: Foxtail, Giant plant response rating
# [8] = post-emergence, postemergence, visual rating, scale 0 (no effect) to 100 (complete control), read-out: Morningglory plant response rating
# [9] = post-emergence, postemergence, visual rating, scale 0 (no effect) to 100 (complete control), read-out: Pigweed plant response rating
# [10] = post-emergence, postemergence, visual rating, scale 0 (no effect) to 100 (complete control), read-out: Velvetleaf plant response rating
structure (smiles),measurement,setting,value
"CCn1nc(C(C)(C)C)cc1C(=O)Nc1cc(C(=O)OC)ccn1 [Compound 151, methyl 2-[[[3-(1,1-dimethylethyl)-1-ethyl-1H-pyrazol-5-yl]carbonyl]amino]-4-pyridinecarboxylate]",pest or weed control at 125 g/ha,barnyardgrass [1]; [4],0%
same,pest or weed control at 500 g/ha,barnyardgrass [1]; [4],10%
same,pest or weed control at 500 g/ha,"barnyardgrass [1]; pre-emergence, visual rating 0-100, 0 no effect, 100 complete control, read-out: Plant response rating, Barnyardgrass",10%
same,pest or weed control at 125 g/ha,"barnyardgrass [1]; pre-emergence, preemergence, 0 to 100 scale, 0 is no effect, 100 is complete control, read-out: Plant response rating, Barnyardgrass",0%
same,pest or weed control at 125 g/ha,Surinam grass; [5],10%
same,pest or weed control at 500 g/ha,Surinam grass; [5],10%
same,pest or weed control at 500 g/ha,"Surinam grass; pre-emergence, visual rating 0-100, 0 no effect, 100 complete control, read-out: Plant response rating, Surinam Grass",10%
same,pest or weed control at 125 g/ha,"Surinam grass; pre-emergence, preemergence, 0 to 100 scale, 0 is no effect, 100 is complete control, read-out: Plant response rating, Surinam Grass",0%
same,plant injury at 125 g/ha,"corn; post-emergence, postemergence, 125 g ai/ha, visual rating, scale 0 (no effect) to 100 (complete control), read-out: Corn plant response rating",10%
same,plant injury at 500 g/ha,"corn; post-emergence, postemergence, 500 g ai/ha, visual rating, scale 0 (no effect) to 100 (complete control), read-out: Corn plant response rating",10%
same,"Corn plant response rating (crop injury, 0 = no effect, 100 = complete kill) at 500 g/ha","corn; pre-emergence, 500 g ai/ha, visual rating 0-100, 0 no effect, 100 complete control",0%
same,"Corn plant response rating (crop injury, 0 = no effect, 100 = complete kill) at 125 g/ha","corn; pre-emergence, preemergence, 125 g ai/ha, 0 to 100 scale, 0 is no effect, 100 is complete control",0%
same,pest or weed control at 125 g/ha,large crabgrass; [6],0%
same,pest or weed control at 500 g/ha,large crabgrass; [6],0%
same,pest or weed control at 500 g/ha,"large crabgrass; pre-emergence, visual rating 0-100, 0 no effect, 100 complete control, read-out: Plant response rating, Crabgrass, Large",10%
same,pest or weed control at 125 g/ha,"large crabgrass; pre-emergence, preemergence, 0 to 100 scale, 0 is no effect, 100 is complete control, read-out: Plant response rating, Crabgrass, Large",0%
same,pest or weed control at 125 g/ha,giant foxtail; [7],10%
same,pest or weed control at 500 g/ha,giant foxtail; [7],20%
same,pest or weed control at 500 g/ha,"giant foxtail; pre-emergence, visual rating 0-100, 0 no effect, 100 complete control, read-out: Plant response rating, Foxtail, Giant",10%
same,pest or weed control at 125 g/ha,"giant foxtail; pre-emergence, preemergence, 0 to 100 scale, 0 is no effect, 100 is complete control, read-out: Plant response rating, Foxtail, Giant",0%
same,pest or weed control at 125 g/ha,morningglory; [8],10%
same,pest or weed control at 500 g/ha,morningglory; [8],30%
same,pest or weed control at 500 g/ha,"morningglory; pre-emergence, visual rating 0-100, 0 no effect, 100 complete control, read-out: Plant response rating, Morningglory",0%
same,pest or weed control at 125 g/ha,"morningglory; pre-emergence, preemergence, 0 to 100 scale, 0 is no effect, 100 is complete control, read-out: Plant response rating, Morningglory",0%
same,pest or weed control at 125 g/ha,pigweed; [9],10%
same,pest or weed control at 500 g/ha,pigweed; [9],30%
same,pest or weed control at 500 g/ha,"pigweed; pre-emergence, visual rating 0-100, 0 no effect, 100 complete control, read-out: Plant response rating, Pigweed",0%
same,pest or weed control at 125 g/ha,"pigweed; pre-emergence, preemergence, 0 to 100 scale, 0 is no effect, 100 is complete control, read-out: Plant response rating, Pigweed",0%
same,pest or weed control at 125 g/ha,velvetleaf; [10],10%
same,pest or weed control at 500 g/ha,velvetleaf; [10],20%
same,pest or weed control at 500 g/ha,"velvetleaf; pre-emergence, visual rating 0-100, 0 no effect, 100 complete control, read-out: Plant response rating, Velvetleaf",0%
same,pest or weed control at 125 g/ha,"velvetleaf; pre-emergence, preemergence, 0 to 100 scale, 0 is no effect, 100 is complete control, read-out: Plant response rating, Velvetleaf",0%
same,pest or weed control at 125 g/ha,blackgrass; 125 g ai/ha,10%
same,pest or weed control at 500 g/ha,blackgrass; 500 g ai/ha,30%
same,plant injury at 500 g/ha,wheat,20%
same,pest or weed control at 125 g/ha,wild oat; 125 g ai/ha,10%
same,pest or weed control at 500 g/ha,wild oat; 500 g ai/ha,30%
same,plant injury at 1000 g/ha,rice,0%
same,pest or weed control at 1000 g/ha,[2],60%
same,pest or weed control at 1000 g/ha,ducksalad,0%
same,pest or weed control at 1000 g/ha,barnyardgrass [3],0%
